The numbers were not newly measured in patent US12202853B2, “Epoxide polyene amphoteric macrolide and process for purifying natamycin” (DSM IP ASSETS B.V., priority 2018, dated 2025), which cites them from elsewhere.

Read-outs that look alike come from different tables or passages of the source.

With Natamycin, the “solubility of natamycin in water” value is reported as “around 40 mg/L” (neutral pH) and “around 0.04 g/L” (neutral pH values, also printed as 40 ppm).
